The structures appear in SMILES notation. Values after ≈ are worked out from the molar mass of the structure shown. Active and inactive are the calls of the source.

For data set [1], the system named is Cryptococcus neoformans. Put plainly: Antifungal activity against Cryptococcus neoformans H99 assessed as fungal growth inhibition by broth microdilution assay. The format is functional. Background: Dilution methods test growth across graded concentrations, often in twofold steps.
Data set [2] has as its system Cryptococcus neoformans. Put plainly: Antifungal activity against Cryptococcus neoformans 5-FC assessed as fungal growth inhibition by broth microdilution assay. The format is functional.
The subject of data set [3] is Cryptococcus deuterogattii. The experiment in a line: Antifungal activity against Cryptococcus gattii VGII R265 assessed as fungal growth inhibition by broth microdilution assay. Type of data set: functional, Cryptococcus gattii species complex.
The subject of data set [4] is Candida albicans. The experiment in a line: Antifungal activity against Candida albicans SC5314 assessed as fungal growth inhibition by broth microdilution assay. The format is functional.
Data set [5] concerns Candida albicans. The experiment in a line: Antifungal activity against Candida albicans CARG5 assessed as fungal growth inhibition by broth microdilution assay. Type of data set: functional.
For data set [6], the system named is Candida albicans. The experiment in a line: Antifungal activity against Candida albicans CA17 assessed as fungal growth inhibition by broth microdilution assay. Type of data set: functional.
In data set [7] the test system is Candida albicans. The experiment in a line: Antifungal activity against Candida albicans 28A assessed as fungal growth inhibition by broth microdilution assay. Type of data set: functional.
A further data set concerns Candida parapsilosis. The experiment in a line: Antifungal activity against Candida parapsilosis ATCC 22019 assessed as fungal growth inhibition by broth microdilution assay. Type of data set: functional. The conditions noted are these: Lodderomyces parapsilosis.
The test system of a further data set is Pichia kudriavzevii. The experiment in a line: Antifungal activity against Candida krusei ATCC6258 assessed as fungal growth inhibition by broth microdilution assay. The format is functional.
Data set [8] can be described thus: Hemolytic activity in human RBC incubated for 1 hr by microplate reader method. The format is toxicity, cell-based, Erythrocyte. The conditions noted are these: red blood cells (erythrocytes).
A short description of data set [9]: Selectivity ratio of HC50 for hemolytic activity in human RBC to MIC for antifungal activity against Cryptococcus neoformans H99. The format is toxicity. The conditions noted are these: red blood cells (erythrocytes).
The nature of data set [10]: Selectivity ratio of HC50 for hemolytic activity in human RBC to MIC for antifungal activity against Cryptococcus neoformans 5-FC. The format is toxicity. The note with it: red blood cells (erythrocytes).
A short description of data set [11]: Selectivity ratio of HC50 for hemolytic activity in human RBC to MIC for antifungal activity against Cryptococcus gattii R265. The format is toxicity. The conditions noted are these: red blood cells (erythrocytes).
The nature of data set [12]: Selectivity ratio of HC50 for hemolytic activity in human RBC to MIC for antifungal activity against Candida albicans SC5314. The format is toxicity. The conditions noted are these: red blood cells (erythrocytes).
A short description of data set [13]: Selectivity ratio of HC50 for hemolytic activity in human RBC to MIC for antifungal activity against Candida albicans CARG5. The format is toxicity. The note with it: red blood cells (erythrocytes).
Data set [14] can be described thus: Selectivity ratio of HC50 for hemolytic activity in human RBC to MIC for antifungal activity against Candida albicans CA17. Type of data set: toxicity. The note with it: red blood cells (erythrocytes).
A short description of data set [15]: Selectivity ratio of HC50 for hemolytic activity in human RBC to MIC for antifungal activity against Candida albicans 28A. The format is toxicity. The note with it: red blood cells (erythrocytes).
Data set [16] is described as follows: Selectivity ratio of HC50 for hemolytic activity in human RBC to MIC for antifungal activity against Candida parapsilosis ATCC 22019. The format is toxicity. The note with it: red blood cells (erythrocytes).
Data set [17] can be described thus: Selectivity ratio of HC50 for hemolytic activity in human RBC to MIC for antifungal activity against Candida krusei ATCC6258. The format is toxicity. The conditions noted are these: red blood cells (erythrocytes).
Another data set has as its system Cell membrane. Put plainly: Induction of membrane permeabilization in Candida albicans SC5314 assessed as distruption of fungal cell membrane by measuring PI positive cells at 8 times MIC measured after 1 hrs by propidium iodide and DAPI staining based fluorescence microscopic analysis. Type of data set: subcellular.
For data set [18], the system named is Mucor racemosus. Put plainly: Antifungal activity against Mucor racemosus MZ140 assessed as fungal growth inhibition by broth microdilution assay. Type of data set: functional.
Data set [19] concerns Mucor racemosus. The experiment in a line: Antifungal activity against Mucor racemosus R715 assessed as fungal growth inhibition by broth microdilution assay. Type of data set: functional.
Data set [20] relates to Aspergillus fumigatus. Put plainly: Antifungal activity against Aspergillus fumigatus AF293 assessed as fungal growth inhibition by broth microdilution assay. The format is functional.
In data set [21] the test system is Aspergillus fumigatus. Put plainly: Antifungal activity against Aspergillus fumigatus shjt40 assessed as fungal growth inhibition by broth microdilution assay. Type of data set: functional.
Data set [22] is described as follows: Selectivity ratio of HC50 for hemolytic activity in human RBC to MIC for antifungal activity against Mucor racemosus MZ140. The note with it: red blood cells (erythrocytes). Type of data set: toxicity.
Data set [23] is described as follows: Selectivity ratio of HC50 for hemolytic activity in human RBC to MIC for antifungal activity against Mucor racemosus R715. Type of data set: toxicity. The note with it: red blood cells (erythrocytes).
Data set [24] in a line: Selectivity ratio of HC50 for hemolytic activity in human RBC to MIC for antifungal activity against Aspergillus fumigatus AF293. The note with it: red blood cells (erythrocytes). Type of data set: toxicity.
Data set [25] can be described thus: Selectivity ratio of HC50 for hemolytic activity in human RBC to MIC for antifungal activity against Aspergillus fumigatus shjt40. The format is toxicity. The conditions noted are these: red blood cells (erythrocytes).
The nature of data set [26]: Toxicity against Galleria mellonella larva infected with Candida albicans SC5314 assessed as increase in survival rate at 8 mg/kg measured for 14 days. The format is organism-based. The note with it: in vivo, 336 h, time 14 day.
Data set [27] concerns Candida albicans. Put plainly: Fungicidal activity against Candida albicans SC5314 assessed as fungal growth inhibition incubated for 24 hrs by resazurin dye based assay. The format is functional. Background: Resazurin is reduced to fluorescent resorufin, in cell work by metabolically active cells.

The MIC50 is the lowest concentration that inhibits either 50% of growth or 50% of the strains tested, depending on the study. The HC50 is the concentration giving 50% haemolysis. In the case of `CCCCCCCCCCCCCCCC(=O)N[C@@H](CCCCN)C(=O)N[C@@H](Cc1ccccc1)CN(CC(N)=O)C(=O)CN`, the MIC50 in the data set on Cryptococcus neoformans [1] amounted to 8 µg/mL (≈ 12.7 µM); with Cryptococcus neoformans [2], 8 µg/mL (≈ 12.7 µM); in data set [3], 8 µg/mL (≈ 12.7 µM); in the data set on Candida albicans [4], 4 µg/mL (≈ 6.34 µM); in the data set on Candida albicans [5] it was 8 µg/mL (≈ 12.7 µM); with Candida albicans [6] it was 8 µg/mL (≈ 12.7 µM). Moreover, the MIC50 in the data set on Candida albicans [7] was found to be 8 µg/mL (≈ 12.7 µM); in the data set with Candida parapsilosis, 4 µg/mL (≈ 6.34 µM); in the data set on Pichia kudriavzevii, 4 µg/mL (≈ 6.34 µM). Further, in [8], the HC50 at 1 h is > 250 µg/mL. For the same compound, the selectivity ratio in [9], in data set [10], in [11], in data set [12], in data set [13] and in data set [14] was ≤ 125 throughout. Also, the selectivity ratio in [15], in data set [16] and in data set [17] was ≤ 125 in each case.
In the case of `CCCCCCCCCCCCCCCC(=O)N[C@@H](CCCCN)C(=O)N[C@@H](Cc1ccccc1)CN(CC(N)=O)C(=O)CCN`, the MIC50 (with Cryptococcus neoformans [1]; in the data set on Cryptococcus neoformans [2]; in data set [3]; with Candida albicans [4]; in the data set with Candida albicans [5]; in the data set with Candida albicans [6]) was 4 µg/mL (≈ 6.2 µM) throughout. The MIC50 in the data set with Candida albicans [7] was found to be 4 µg/mL (≈ 6.2 µM); with Candida parapsilosis, 2 µg/mL (≈ 3.1 µM); in the data set with Pichia kudriavzevii, 2 µg/mL (≈ 3.1 µM). Further, in [8], the HC50 at 1 h was > 250 µg/mL. Further, the selectivity ratio in data set [9], in data set [10], in data set [11], in data set [12], in [13] and in [14] was ≤ 125 in each case. The selectivity ratio in data set [15], in [16] and in data set [17] was ≤ 125 each time.
As for `C[C@@H]1[C@H](O)[C@@H](C)/C=C/C=C/C=C/C=C/C=C/C=C/C=C/[C@H](O[C@@H]2O[C@H](C)[C@@H](O)[C@H](N)[C@@H]2O)C[C@@H]2O[C@](O)(C[C@@H](O)C[C@@H](O)[C@H](O)CC[C@@H](O)C[C@@H](O)CC(=O)O[C@H]1C)C[C@H](O)[C@H]2C(=O)O`, in the data set on Cell membrane, the outcome was Active.
Consider `CCCCCCCCCCCCCCCCCC(=O)N[C@@H](CCCCN)C(=O)N[C@@H](Cc1ccccc1)CN(CC(N)=O)C(=O)CCN`, for which the MIC50 in the data set on Cryptococcus neoformans [1] was 2 µg/mL (≈ 2.97 µM); with Cryptococcus neoformans [2], 2 µg/mL (≈ 2.97 µM); in data set [3], 2 µg/mL (≈ 2.97 µM); in the data set on Candida albicans [4], 2 µg/mL (≈ 2.97 µM); with Candida albicans [5] it was 2 µg/mL (≈ 2.97 µM); in the data set with Candida albicans [6], 4 µg/mL (≈ 5.94 µM). Further, the MIC50 in the data set on Candida albicans [7] is 2 µg/mL (≈ 2.97 µM); in the data set on Candida parapsilosis, 2 µg/mL (≈ 2.97 µM); in the data set on Pichia kudriavzevii, 4 µg/mL (≈ 5.94 µM); in the data set on Mucor racemosus [18] it was 16 µg/mL (≈ 23.8 µM); in the data set with Mucor racemosus [19], 16 µg/mL (≈ 23.8 µM); in the data set on Aspergillus fumigatus [20], 8 µg/mL (≈ 11.9 µM). The MIC50 in the data set on Aspergillus fumigatus [21] is 8 µg/mL (≈ 11.9 µM). Also, the HC50 at 1 h in [8] was > 250 µg/mL. Besides, the selectivity ratio in data set [9], in [10], in data set [11], in data set [12], in data set [13] and in [14] was ≤ 125 each time. The selectivity ratio in data set [15], in data set [16], in [17], in data set [22], in data set [23] and in [24] was ≤ 125 throughout. Moreover, the selectivity ratio in [25] is ≤ 125.
As for `CCC(C)n1ncn(-c2ccc(N3CCN(c4ccc(OCC5COC(Cn6cncn6)(c6ccc(Cl)cc6Cl)O5)cc4)CC3)cc2)c1=O` (centres undefined) [ITRACONAZOLE], the MIC50 was 1 µg/mL (≈ 1.42 µM) in the data set on Mucor racemosus [18], 1 µg/mL (≈ 1.42 µM) in the data set with Mucor racemosus [19], 1 µg/mL (≈ 1.42 µM) in the data set on Aspergillus fumigatus [20] and > 32 µg/mL with Aspergillus fumigatus [21].
For `CCCCCCCC/C=C\CCCCCCCC(=O)N[C@@H](CCCCN)C(=O)N[C@@H](Cc1ccccc1)CN(CC(N)=O)C(=O)CCN`, the MIC50 (in the data set on Cryptococcus neoformans [1]; with Cryptococcus neoformans [2]; in data set [3]; in the data set with Candida albicans [4]; in the data set on Candida albicans [5]; in the data set with Candida albicans [6]) was 4 µg/mL (≈ 5.96 µM) in each case. In addition, the MIC50 with Candida albicans [7], in the data set on Candida parapsilosis and with Pichia kudriavzevii was 4 µg/mL (≈ 5.96 µM) in each case. Also, in data set [8], the HC50 at 1 h was > 250 µg/mL. For the same compound, the selectivity ratio in [9], in [10], in data set [11], in data set [12], in data set [13] and in [14] was ≤ 125 in each case. Also, the selectivity ratio in [15], in data set [16] and in [17] was ≤ 125 each time.
As a reminder, the MFC is the smallest concentration meeting the test's criterion for killing the fungus. As to `OC(Cn1cncn1)(Cn1cncn1)c1ccc(F)cc1F` [FLUCONAZOLE], in data set [26], the Activity result is “Non-Toxic”. Further, the MIC50 in the data set on Cryptococcus neoformans [1] is 4 µg/mL (≈ 13.1 µM); in the data set on Cryptococcus neoformans [2], 2 µg/mL (≈ 6.53 µM); in [3], 4 µg/mL (≈ 13.1 µM); in the data set on Candida albicans [4], 1 µg/mL (≈ 3.27 µM); in the data set on Candida albicans [5], > 128 µg/mL; with Candida albicans [6], > 128 µg/mL. Moreover, the MIC50 in the data set with Candida albicans [7] is > 128 µg/mL; in the data set on Candida parapsilosis, 2 µg/mL (≈ 6.53 µM); in the data set on Pichia kudriavzevii, 32 µg/mL (≈ 104 µM); with Mucor racemosus [18], > 32 µg/mL; in the data set with Mucor racemosus [19] it was > 32 µg/mL; with Aspergillus fumigatus [20] it was > 32 µg/mL. The MIC50 in the data set on Aspergillus fumigatus [21] is > 32 µg/mL. Moreover, in the data set on Candida albicans [27], the MFC is > 16 µg/mL.

These data come from ChEMBL document CHEMBL5154933, “Development of Lipo-γ-AA Peptides as Potent Antifungal Agents” (J Med Chem, 2022).
